Values after ≈ are worked out from the molar mass of the structure shown.
Key:
Experiment in all cases: MIC by agar dilution
[1] = test system: K. pneumoniae (87); format: cell-based, Klebsiella pneumoniae; conditions: Klebsiella pneumoniae
From the text: (§1) Bacterial isolates. […] These included Citrobacter freundii (n=5), other species of Citrobacter (n=4), Enterobacter aerogenes (n=1), Enterobacter cloacae (n=27), Escherichia coli (n=53), Klebsiella oxytoca (n=5), Klebsiella pneumoniae (n=87), Kluyvera spp (n=1), Proteus mirabilis (n=8), Providencia rettgeri (n=2), Salmonella spp (n=3), and Serratia marcescens (n=1). Among these 197 isolates, there were 128 (65%) carbapenemase producers, including; 87 with NDM-1, 9 with IMP, 11 with KPC, 14 with OXA-48 and 7 with VIM. The majority of the carbapenemase producers jointly produced broad-spectrum β-lactamases (BSBL) or cephalosporinases (AmpC β-lactamases), but the latter are not documented for the sake of clarity.
(§2) Determining the minimum inhibitory concentrations (MIC). All the MICs were determined using an agar dilution method. This required use of a medium without a defined antagonist (peptone-free), prepared as described previously with the inclusion of 2% horse blood lysed with saponin, 25.0 μg/mL of NAD and 25.0 μg/mL of hemin [17]. The compounds tested were dissolved in sterile deionised water and incorporated into the agar medium in a concentration range of 0.0031 to 8.0 μg/mL (0.016 to 32 μg/mL for gram-positive bacteria). All the isolates were prepared at a density equivalent to 0.5 McFarland units in sterile deionised water using a densitometer (approximately 1.5×10^8 CFU/mL), and then diluted to 1 for 15. An aliquot of 1 μL of each diluted suspension was then placed onto plates with a multispot inoculator to give the final recommended inoculation of 10 000 CFU/spot. The MICs of fosfomycin were determined by the same method, except that the IsoSensitest medium (Oxoid, Basingstoke, United Kingdom) was used, plus 25.0 μg/mL of glucose-6-phosphate (Sigma, Poole, United Kingdom) and an extended range of fosfomycin concentrations. All the dishes (including the antimicrobial-free controls) were incubated for 22 hours at 37° C. All the tests were performed on at least two independent replicates in order to examine the reproducibility.

[2] = test system: AmpC (22); format: cell-based, Enterobacteriaceae
From the text: as §1, §2

[3] = test system: All S. aureus (50); format: cell-based, Staphylococcus aureus
From the text: (§3) A collection of 50 isolates of Staphylococci aureus included 36 strains of methicillin-resistant S. aureus (MRSA) frequently encountered in Europe, including strains isolated in Belgium, Finland, France, Germany and the United Kingdom. Another strain of MRSA, NCTC 11939, was included as a control, as well as a methicillin-sensitive control (NCTC 6571). Twelve other isolates of methicillin-sensitive Staphylococcus aureus (MSSA) recently collected from blood cultures were also included. Finally, 50 isolates of enterococci included two control strains (Enterococcus faecalis NCTC 755 and Enterococcus faecium NCTC 7171) and 48 isolates originating from clinical samples obtained from at least three different hospitals. The clinical isolates included E. faecalis (n=10), E. faecium (n=33), Enterococcus casseliflavus (n=3), Enterococcus gallinarum (n=2).
as §2

[4] = test system: E. faecalis (11); format: cell-based, Enterococcus faecalis
From the text: as §3, §2

[5] = test system: All Enterococci (50); format: cell-based
From the text: as §3, §2

[6] = test system: glycopeptide-resistant enterococci; format: cell-based
From the text: as §3, §2

[7] = test system: methicillin-resistant Staphylococcus aureus; format: cell-based
From the text: as §3, §2

[8] = test system: methicillin-sensitive Staphylococcus aureus; format: cell-based
From the text: as §3, §2

[9] = test system: E. faecium (34); format: cell-based, Enterococcus faecium; conditions: Enterococcus faecium
From the text: as §3, §2

[10] = test system: E. cloacae (27); format: cell-based, Enterobacter cloacae; conditions: Enterobacter cloacae
From the text: as §1, §2

[11] = test system: Enterobacteriaceae with a broad-spectrum β-lactamase; format: cell-based
From the text: as §1, §2

[12] = test system: Enterobacteriaceae (197); format: cell-based
From the text: as §1, §2

[13] = test system: carbapenemase-producing Enterobacteriaceae; format: cell-based
From the text: as §1, §2

[14] = test system: E. coli (53); format: cell-based, Escherichia coli; conditions: Escherichia coli
From the text: as §1, §2

[15] = read-out: Modal MIC (most frequent MIC)

`N[C@@H](CCl)C(=O)N[C@@H](CCl)C(=O)O` [β-Cl-Ala-β-Cl-Ala, β-chloro-L-alanyl-β-chloro-L-alanine] showed an MIC50 [1] greater than 8 µg/mL, an MIC90 [1] greater than 8 µg/mL and an MIC [1, 15] greater than 8 µg/mL. It also gave an MIC50 [2] greater than 8 µg/mL, an MIC90 [2] greater than 8 µg/mL and an MIC [2, 15] greater than 8 µg/mL. The “MIC Range” value ([3]; All S. aureus (50)) was 0.125 to 16 µg/mL, the MIC50 ([3]; Staphylococcus aureus) was 2 µg/mL (≈ 8.73 µM) and the MIC90 ([3]; Staphylococcus aureus) was 4 µg/mL (≈ 17.5 µM). The MIC ([3]; Staphylococcus aureus, read-out: Modal MIC (most frequent MIC)) was 2 µg/mL (≈ 8.73 µM), the “MIC Range” value ([4]; E. faecalis (11)) was 4 to 16 µg/mL and the MIC50 ([4]; Enterococcus faecalis) was 8 µg/mL (≈ 34.9 µM). For the same molecule, the MIC90 ([4]; Enterococcus faecalis) was 16 µg/mL (≈ 69.8 µM), the MIC ([4]; Enterococcus faecalis, read-out: Modal MIC (most frequent MIC)) was 8 µg/mL (≈ 34.9 µM) and the MIC50 [5] was 16 µg/mL (≈ 69.8 µM). The MIC90 [5] was 32 µg/mL (≈ 140 µM), the “MIC Range” value ([5]; All Enterococci (50)) was 2 to 16 µg/mL and the MIC [5, 15] was 16 µg/mL (≈ 69.8 µM). It also gave an MIC50 [6] of 16 µg/mL (≈ 69.8 µM), an MIC90 [6] greater than 32 µg/mL and an MIC [6, 15] of 16 µg/mL (≈ 69.8 µM). For the same molecule, the “MIC Range” value ([7]; MRSA (37)) was 0.125 to 16 µg/mL, the MIC50 ([7]; Staphylococcus aureus, MRSA) was 2 µg/mL (≈ 8.73 µM) and the MIC90 ([7]; Staphylococcus aureus, MRSA) was 4 µg/mL (≈ 17.5 µM). For the same molecule, the MIC ([7]; Staphylococcus aureus, MRSA, read-out: Modal MIC (most frequent MIC)) was 2 µg/mL (≈ 8.73 µM), the “MIC Range” value ([8]; MSSA (13)) was 0.5 to 2 µg/mL and the MIC50 ([8]; Staphylococcus aureus, MSSA) was 1 µg/mL (≈ 4.37 µM). The MIC90 ([8]; Staphylococcus aureus, MSSA) was 2 µg/mL (≈ 8.73 µM), the MIC ([8]; Staphylococcus aureus, MSSA, read-out: Modal MIC (most frequent MIC)) was 1 µg/mL (≈ 4.37 µM) and the MIC50 [9] was 16 µg/mL (≈ 69.8 µM). For the same molecule, the MIC90 [9] was 32 µg/mL (≈ 140 µM), the MIC [9, 15] was 16 µg/mL (≈ 69.8 µM) and the MIC50 [10] was greater than 8 µg/mL. It also gave an MIC90 [10] greater than 8 µg/mL, an MIC [10, 15] greater than 8 µg/mL and an MIC50 [11] greater than 8 µg/mL. It also gave an MIC90 [11] greater than 8 µg/mL, an MIC [11, 15] greater than 8 µg/mL and an MIC50 [12] greater than 8 µg/mL. For the same molecule, the MIC90 [12] was greater than 8 µg/mL, the MIC [12, 15] was greater than 8 µg/mL and the MIC50 [13] was greater than 8 µg/mL. It also gave an MIC90 [13] greater than 8 µg/mL, an MIC [13, 15] greater than 8 µg/mL and an MIC50 [14] of 8 µg/mL (≈ 34.9 µM). It also gave an MIC90 [14] greater than 8 µg/mL and an MIC [14, 15] of 8 µg/mL (≈ 34.9 µM).
